Literature values, collected in article PMC11165342 (Asian Journal of Pharmaceutical Sciences, 2024).

pKa: 3.5–4.5
Compound: CC(C(=O)O)c1ccc(-c2ccccc2)c(F)c1 (stereo not shown) [FB, Flurbiprofen]
